From US10577317B2, “Crystal forms and production methods thereof” (Sunovion Pharmaceuticals Inc., priority 2017, dated 2020)
Converted amounts (≈) assume the structure as drawn. “Also recorded” adds a separate entry of the source. Like-named read-outs stand apart in the source and are kept apart here.

What was measured:
Format in all cases: physicochemical
[1] = Solubility (mg/mL) in water, buffers, simulated fluids and organic solvents (Table 1)
[2] = DVS water sorption isotherm, 25° C. scanned over 0 to 95% relative humidity (hygroscopicity); conditions: DVS, 25° C., 0 to 95% relative humidity
From the text: In various embodiments, the hygroscopicity of crystal forms of racemic amisulpride, enantiomeric amisulpride, and enantiomeric amisulpride solvates are characterized by dynamic vapor sorption (DVS). DVS is a gravimetric technique that measures how much of a solvent is absorbed by a sample by varying the vapor concentration surrounding the sample (e.g., relative humidity) and measuring the change in mass. In the present application, DVS is used to generate water sorption isotherms, which represent the equilibrium amount of vapor sorbed as a function of steady state relative vapor pressure at a constant temperature.

[3] = Desolvation of ethyl acetate solvate crystal forms upon drying and heating; conditions: drying and heating above about 30° C.
Method: For example, Examples 4A and 4B teach methods of producing crystalline (R)-amisulpride ethyl acetate solvate of Form B. The product of these examples upon drying above about 30° C., desolvates and converts to crystals of crystalline (R)-amisulpride free base of Form A and amorphous. Similarly, for example, Example 7 teaches a method producing crystalline (S)-amisulpride ethyl acetate solvate of Form B′. The product of these examples upon drying above about 30° C., desolvates and converts to crystals of crystalline (S)-amisulpride free base of Form A′ and amorphous. Although the fraction of the solvate that converts to Form A or Form A′ in the above examples is low, it is sufficient for obtaining seed crystals.
In various preferred embodiments, crystals of enantiomeric amisulpride ethyl acetate solvate are isolated by cooling the reaction mixture to below about 10° C., and preferably to about −10° C., until a slurry is formed. The slurry is slowly warmed and agitated for at least 1 hour at a temperature less than about 10° C., then filtered and washed with ethyl acetate at room temperature, and the resultant residue allowed to dry to isolate the desired crystalline enantiomeric amisulpride ethyl acetate solvate having a powder x-ray crystal pattern comprising peaks, in terms of 2-theta, at least at 6.4±0.2°, 8.3±0.2°, and 20.8±0.2°.

CCN1CCCC1CNC(=O)c1cc(S(=O)(=O)CC)c(N)cc1OC (racemic) [crystalline racemic amisulpride, 4-amino-N-[(1-ethylpyrrolidin-2-yl)methyl]-5-ethylsulfonyl-2-methoxy-benzamide, reference compound]
solubility ([1]; acetone/MtBE 1:4, organic solvent or mixture, read-out: Solubility (mg/mL): Acetone/MtBE 1:4): 0.4 mg/mL (≈ 1080 µM)
solubility ([1]; acetone/MtBE 1:9, organic solvent or mixture, read-out: Solubility (mg/mL): Acetone/MtBE 1:9): 0.2 mg/mL (≈ 541 µM)
solubility ([1]; ethyl acetate, organic solvent or mixture, read-out: Solubility (mg/mL): Ethyl Acetate): 0.5 mg/mL (≈ 1350 µM)
solubility ([1]; water, solution pH 10.2 (Form A), 10.3 (Form A′), read-out: Solubility (mg/mL): Water): < 1 mg/mL

CCN1CCC[C@H]1CNC(=O)c1cc(S(=O)(=O)CC)c(N)cc1OC.O=C(O)C(O)C(O)C(=O)O [(S)-amisulpride D-tartrate, S-(−)-4-Amino-N-[(1-ethyl-2-pyrrolidinyl)methyl]-5-(ethylsulfonyl)-2-methoxybenzamide D-tartrate, reference compound]
hygroscopicity [2]: highly hygroscopic
maximum mass change in water sorption isotherms (n=4, σ=18.25) ([2]; n=4): 52±9%

CCN1CCC[C@@H]1CNC(=O)c1cc(S(=O)(=O)CC)c(N)cc1OC.CCOC(C)=O [Form B, (R)-4-Amino-N-[(1-ethyl-2-pyrrolidinyl)methyl]-5-(ethylsulfonyl)-2-methoxybenzamide ethyl acetate solvate]
desolvation of ethyl acetate solvate form [3]: desolvate upon drying and heating about 30 °C to convert to Form A; also recorded: desolvate to Form A and amorphous

CCN1CCC[C@H]1CNC(=O)c1cc(S(=O)(=O)CC)c(N)cc1OC.CCOC(C)=O [Form B′, S-4-Amino-N-[(1-ethyl-2-pyrrolidinyl)methyl]-5-(ethylsulfonyl)-2-methoxybenzamide ethyl acetate solvate]
desolvation of ethyl acetate solvate form [3]: desolvate upon drying and heating about 30 °C; also recorded: desolvate to Form A′ and amorphous
